The results in this text go back to US9452980B2, “Substituted benzamides” (Hoffmann-La Roche Inc., priority 2009, dated 2016).

pKi: −log10 of the molar value. Structures can show the parent of a compound that is named as a salt. Where two headings read alike, the source gives them in different places.

For one assay, the target named is mouse TAAR1 (Mus musculus (Mouse), UniProt Q923Y8). Briefly: Radioligand binding assay on mouse TAAR1. The note with it: for Ki: read-out: Ki (μM) mouse. In short, it runs like this: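 Membranes were from HEK293 cells stably expressing mouse TAAR1. Compounds from 10 pM to 10 μM, in duplicate, competed with [3H]-(S)-4-[(ethyl-phenyl-amino)-methyl]-4,5-dihydro-oxazol-2-ylamine for 1 h at 4 °C. Nonspecific binding was defined with 10 μM unlabelled ligand, and bound radioactivity was read by filtration and scintillation.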
mouse TAAR1, sequence (Q923Y8 whole entry): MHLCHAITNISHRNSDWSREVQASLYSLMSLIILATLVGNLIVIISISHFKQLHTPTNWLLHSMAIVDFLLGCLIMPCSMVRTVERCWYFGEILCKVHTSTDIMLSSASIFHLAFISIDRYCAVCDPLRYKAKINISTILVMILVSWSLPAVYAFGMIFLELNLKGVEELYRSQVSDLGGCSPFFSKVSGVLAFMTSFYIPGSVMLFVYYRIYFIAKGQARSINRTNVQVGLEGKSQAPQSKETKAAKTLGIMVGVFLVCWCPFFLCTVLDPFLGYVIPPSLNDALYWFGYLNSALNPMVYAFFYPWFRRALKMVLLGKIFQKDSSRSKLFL

In another assay the target is rat TAAR1 (Rattus norvegicus (Rat), UniProt Q923Y9). Description: Radioligand binding assay on rat TAAR1. To be noted: for Ki: read-out: Ki (μM) rat. In short, it runs like this: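 Membranes from HEK293 cells stably expressing rat TAAR1, with Kd checked per batch by saturation. Competition with ³H-(S)-4-[(ethyl-phenyl-amino)-methyl]-4,5-dihydro-oxazol-2-ylamine, compounds 10 pM–10 μM in duplicate, 1 hr at 4 °C. Filtration then scintillation counting; nonspecific binding defined with 10 μM unlabeled ligand.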
rat TAAR1, sequence (Q923Y9 whole entry): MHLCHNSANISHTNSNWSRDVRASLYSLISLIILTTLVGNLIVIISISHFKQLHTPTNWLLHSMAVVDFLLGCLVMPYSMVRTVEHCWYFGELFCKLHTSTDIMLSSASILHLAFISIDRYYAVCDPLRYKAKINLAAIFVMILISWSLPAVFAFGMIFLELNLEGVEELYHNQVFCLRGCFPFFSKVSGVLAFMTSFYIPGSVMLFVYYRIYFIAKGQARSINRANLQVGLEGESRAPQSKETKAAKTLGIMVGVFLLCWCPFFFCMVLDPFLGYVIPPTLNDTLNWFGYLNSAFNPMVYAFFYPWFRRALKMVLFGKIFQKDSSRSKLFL

Setting [1] is: mouse TAAR1, HEK-293 membranes, first value of cell mouse/rat.
The mark [2] stands for this setting: rat TAAR1, HEK-293 membranes, second value of cell mouse/rat.

As to `O=C(Nc1ccc(C2CCCNC2)cc1)c1ncc(F)cc1F` (racemic) [Example 106, (RS)-3,5-Difluoro-pyridine-2-carboxylic acid (4-piperidin-3-yl-phenyl)-amide hydrochloride], the Ki worked out at 0.0248 µM at mouse TAAR1 (setting [1]) and 1.43 µM on rat TAAR1 (setting [2]).

Consider `O=C(Nc1ccc(C2CCNC2)cc1)Nc1ccc(Cl)c(Cl)c1` (racemic) [Example 3, (RS)-1-(3,4-Dichloro-phenyl)-3-(4-pyrrolidin-3-yl-phenyl)-urea hydrochloride], for which the figures for the Ki at mouse TAAR1 (setting [1]) and on rat TAAR1 (setting [2]) were 0.0013 µM and 0.0016 µM, respectively.

On to `CC1(COc2ccc(C(=O)Nc3ccc(C4CNCCO4)cc3)cc2)COC1` (racemic) [Example 228, (RS)-4-((3-Methyloxetan-3-yl)methoxy)-N-(4-(morpholin-2-yl)phenyl)benzamide], for which the Ki on mouse TAAR1 (setting [1]) came to 0.199 µM; on rat TAAR1 (setting [2]), 0.0608 µM.

As for `C[C@H]1CNC[C@H](c2ccc(NC(=O)c3cccc(Cl)c3)cc2)O1` [Example 309, 3-Chloro-N-(4-((2S,6S)-6-methylmorpholin-2-yl)phenyl)benzamide hydrochloride], the Ki at mouse TAAR1 turned out to be 0.116 µM; at rat TAAR1 (setting [2]) it was 0.0023 µM.

For the molecule `O=C(Nc1ccc([C@H]2CNCCO2)cc1)c1ccc(C(F)(F)F)nc1` [Example 284, (S)—N-(4-(Morpholin-2-yl)phenyl)-6-(trifluoromethyl)nicotinamide hydrochloride], the Ki on mouse TAAR1 was determined as 0.0128 µM; at rat TAAR1 it was 0.005 µM.

With `O=C(Nc1ccc(C2CCCNC2)cc1)Nc1ccc(Cl)cn1` (racemic) [Example 83, (RS)-1-(5-Chloro-pyridin-2-yl)-3-(4-piperidin-3-yl-phenyl)-urea hydrochloride], the inhibition constant (Ki) stood at 0.002 µM on mouse TAAR1 (setting [1]) and 0.012 µM on rat TAAR1 (setting [2]).

On to `O=C(Nc1ccc([C@@H]2CCCNC2)cc1)c1ccc(Cl)cn1` [Example 168, (S)-5-Chloro-N-(4-(piperidin-3-yl)phenyl)picolinamide hydrochloride], for which the Ki at mouse TAAR1 was 0.608 µM; at rat TAAR1 (setting [2]), 0.0026 µM.

Regarding `O=C(Nc1ccc(C2CCNC2)cc1)Oc1ccc(F)cc1` (racemic) [Example 15, (RS)-(4-Pyrrolidin-3-yl-phenyl)-carbamic acid 4-fluoro-phenyl ester hydrochloride], the pKi was 8.68 at mouse TAAR1 and 8.09 on rat TAAR1.

In the case of `O=C(Nc1ccc(CCC2CCCN2)cc1)c1ccc(F)cc1` (racemic) [Example 156, (RS)-4-Fluoro-N-[4-(2-pyrrolidin-2-yl-ethyl)-phenyl]-benzamide hydrochloride], the Ki came to 0.153 µM on mouse TAAR1 (setting [1]) and 0.002 µM at rat TAAR1 (setting [2]).

As to `CC(OC(=O)Nc1ccc(C2CCNC2)cc1)c1ccc(Cl)cc1` (racemic) [Example 127, (RS)-(4-Pyrrolidin-3-yl-phenyl)-carbamic acid (RS)-1-(4-chloro-phenyl)-ethyl ester], the inhibition constant (Ki) on mouse TAAR1 (setting [1]) was 0.0006 µM; on rat TAAR1 (setting [2]) it was 0.002 µM.

Regarding `O=C(Nc1ccc(C2CNCCO2)cc1)c1ccc(OCC(F)(F)F)nc1` (racemic) [Example 222, (RS)—N-(4-(Morpholin-2-yl)phenyl)-6-(2,2,2-trifluoroethoxy)nicotinamide hydrochloride], the inhibition constant Ki came to 0.0037 µM on mouse TAAR1 and 0.0033 µM at rat TAAR1.

`C#Cc1ccc(C(=O)Nc2ccc(CCC3CCCCN3)cc2)cc1` (racemic) [Example 177, (RS)-4-Ethynyl-N-(4-(2-(piperidin-2-yl)ethyl)phenyl)benzamide hydrochloride]: the Ki on mouse TAAR1 (setting [1]) turned out to be 0.114 µM; on rat TAAR1 (setting [2]), 0.0067 µM.

As for `O=C(Nc1ccc([C@@H]2CCCNC2)cc1)c1cccc(C(F)(F)F)c1` [Example 234, (S)—N-(4-(Piperidin-3-yl)phenyl)-3-(trifluoromethyl)benzamide hydrochloride], the Ki at mouse TAAR1 worked out at 0.0217 µM; on rat TAAR1, 0.001 µM.

Turning to `O=C(NCc1ccc([C@@H]2CNCCO2)cc1)c1cccc(Cl)c1` [Example 313, (R)-3-Chloro-N-(4-(morpholin-2-yl)benzyl)benzamide hydrochloride], the values for the inhibition constant (Ki) on mouse TAAR1 (setting [1]) and at rat TAAR1 (setting [2]) were 0.547 µM and 0.0154 µM, respectively.

In the case of `Cc1ccc(NC(=O)Nc2ccc(C3CNCCO3)cc2)cc1` (racemic) [Example 293, (RS)-1-(4-(Morpholin-2-yl)phenyl)-3-p-tolylurea hydrochloride], the Ki was 0.0074 µM on mouse TAAR1 (setting [1]) and 0.0014 µM on rat TAAR1 (setting [2]).

Turning to `O=C(Nc1ccc([C@H]2CNCCO2)cc1)Nc1ccc(C(F)(F)F)cc1` [Example 312, (S)-1-(4-(Morpholin-2-yl)phenyl)-3-(4-(trifluoromethyl)phenyl)urea hydrochloride], the Ki amounted to 0.0007 µM at mouse TAAR1 (setting [1]) and 0.0011 µM on rat TAAR1.

With `O=C(Nc1ccc([C@@H]2CCCNC2)cc1)c1ccc(Cl)nc1` [Example 162, (S)-6-Chloro-N-(4-(piperidin-3-yl)phenyl)nicotinamide hydrochloride], the Ki worked out at 0.231 µM on mouse TAAR1 and 0.0092 µM at rat TAAR1 (setting [2]).

Regarding `O=C(Nc1ccc(C2CNCCO2)cc1)c1ccc(Cl)cc1F` (racemic) [Example 146, (RS)-4-Chloro-2-fluoro-N-(4-morpholin-2-yl-phenyl)-benzamide hydrochloride], the Ki on mouse TAAR1 is 0.0268 µM; at rat TAAR1 (setting [2]) it was 0.001 µM.

Regarding `O=C(Nc1ccc(CCC2CCCN2)cc1)c1ccc(F)cn1` (racemic) [Example 166, (RS)-5-Fluoro-N-(4-(2-(pyrrolidin-2-yl)ethyl)phenyl)picolinamide hydrochloride], the Ki was 0.394 µM on mouse TAAR1 (setting [1]) and 0.0212 µM on rat TAAR1 (setting [2]).

With `O=C(Nc1ccc(C2CNCCO2)cc1)Nc1ccc(Cl)nc1` (racemic) [Example 302, (RS)-1-(6-Chloropyridin-3-yl)-3-(4-(morpholin-2-yl)phenyl)urea hydrochloride], the Ki is 0.0574 µM at mouse TAAR1 (setting [1]) and 0.0056 µM on rat TAAR1 (setting [2]).

Turning to `O=C(Nc1ccc(C2CNCCO2)cc1)c1ccnc(Cl)c1` (racemic) [Example 218, (RS)-2-Chloro-N-(4-(morpholin-2-yl)phenyl)isonicotinamide hydrochloride], the Ki on mouse TAAR1 (setting [1]) came out at 0.0872 µM; on rat TAAR1 (setting [2]) it was 0.0087 µM.

As for `O=C(Nc1ccc(C2CCNC2)cc1)c1nccc2ccsc12` (racemic) [Example 93, (RS)-Thieno[2,3-c]pyridine-7-carboxylic acid (4-pyrrolidin-3-yl-phenyl)-amide hydrochloride], the Ki at mouse TAAR1 (setting [1]) was determined as 0.04 µM; on rat TAAR1 (setting [2]) it was 0.173 µM.

For `O=C(Nc1ccc(C(=O)C2CCNC2)cc1)c1ccc(Cl)cc1` (racemic) [Example 136, (RS)-4-Chloro-N-[4-(pyrrolidine-3-carbonyl)-phenyl]-benzamide hydrochloride], the pKi on mouse TAAR1 was 6.82; on rat TAAR1 it was 9.10.

In the case of `O=C(Nc1ccc(CCC2CCCCN2)cc1)c1cnc(Cl)cn1` (racemic) [Example 174, (RS)-5-Chloro-N-(4-(2-(piperidin-2-yl)ethyl)phenyl)pyrazine-2-carboxamide hydrochloride], the values for the Ki at mouse TAAR1 (setting [1]) and at rat TAAR1 (setting [2]) were 0.437 µM and 0.0159 µM, respectively.

Take `CN1CCN(c2ccc(NC(=O)Nc3ccc(-c4cnco4)cc3)cc2)CC1` [Example 4, 1-[4-(4-Methyl-piperazin-1-yl)-phenyl]-3-(4-oxazol-5-yl-phenyl)-urea]: the Ki was found to be 0.0189 µM on mouse TAAR1 (setting [1]) and 0.0837 µM on rat TAAR1 (setting [2]).

As to `Cc1ccc(C(=O)Nc2ccc(C3CNCCO3)cc2)cc1` (racemic) [Example 189, (RS)-4-Methyl-N-(4-(morpholin-2-yl)phenyl)benzamide hydrochloride], the results for the Ki on mouse TAAR1 (setting [1]) and at rat TAAR1 (setting [2]) were 0.0343 µM and 0.0016 µM, respectively.

For `O=C(Nc1ccc([C@@H]2CCCNC2)cc1)c1cccc(Cl)c1` [Example 153, (S)-3-Chloro-N-(4-(piperidin-3-yl)phenyl)benzamide hydrochloride], the inhibition constant (Ki) on mouse TAAR1 came to 0.0715 µM; at rat TAAR1 (setting [2]), 0.0005 µM.

In the case of `O=C(Nc1ccc([C@H]2CCCNC2)cc1)c1ccc(Cl)cn1` [Example 167, (R)-5-Chloro-N-(4-(piperidin-3-yl)phenyl)picolinamide hydrochloride], the Ki at mouse TAAR1 turned out to be 0.0271 µM; on rat TAAR1 (setting [2]) it was 0.0048 µM.

Consider `O=C(Nc1ccc(C2CNCCO2)cc1)c1csc(-c2cnccn2)n1` (racemic) [Example 288, (RS)—N-(4-(Morpholin-2-yl)phenyl)-2-(pyrazin-2-yl)thiazole-4-carboxamide hydrochloride], for which the inhibitory constant (Ki) on mouse TAAR1 came out at 0.0278 µM; at rat TAAR1 (setting [2]), 0.0075 µM.

As for `O=C(Nc1ccc(C2CNCCO2)cc1)c1ccnc(C(F)(F)F)c1` (racemic) [Example 280, (RS)—N-(4-(Morpholin-2-yl)phenyl)-2-(trifluoromethyl)isonicotinamide hydrochloride], the Ki was found to be 0.0172 µM at mouse TAAR1 (setting [1]) and 0.0069 µM on rat TAAR1 (setting [2]).

As for `O=C(Nc1ccc(CCC2CCCNC2)cc1)Nc1ccc(Cl)cn1` (racemic) [Example 115, (RS)-1-(5-Chloro-pyridin-2-yl)-3-[4-(2-piperidin-3-yl-ethyl)-phenyl]-urea hydrochloride], the Ki came out at 0.32 µM at mouse TAAR1 (setting [1]) and 0.0118 µM at rat TAAR1 (setting [2]).

Take `COC(=O)c1ccc(Oc2ccc(C(=O)Nc3ccc(C4CNCCO4)cc3)cc2)cc1Cl` (racemic) [Example 213, (RS)-Methyl 2-chloro-4-(4-(4-(morpholin-2-yl)phenylcarbamoyl)phenoxy)benzoate hydrochloride]: the Ki at mouse TAAR1 (setting [1]) is 0.0012 µM; on rat TAAR1 (setting [2]), 0.001 µM.

With `O=C(Nc1ccc(CCC2CCCNC2)cc1)c1ccc(Cl)cc1` (racemic) [Example 110, (RS)-4-Chloro-N-[4-(2-piperidin-3-yl-ethyl)-phenyl]-benzamide hydrochloride], the Ki was found to be 0.0021 µM on mouse TAAR1 (setting [1]) and 0.0375 µM on rat TAAR1 (setting [2]).

The term Ki denotes a dissociation constant, usually derived from enzyme kinetics or from competition with a known ligand. What is called pKi is the Ki on a negative log10 scale, so that one unit is a factor of ten. Read a high pKi as a small Ki.
